T/C data for 13 compounds are collected here from PubChem BioAssay AID220 (DTP/NCI, 2004).

Each structure is given as a SMILES string. Values joined by “and” are separate entries in the source; they are usually repeats but may differ in a detail not shown here. Equal values may be shown once. Results filed as inconclusive are left out.

The test system of this assay is CD8F1 mice, subcutaneous mammary adenocarcinoma, T/C%. Kind of assay: NCI In Vivo Anticancer Drug Screen. Data for tumor model Mammary Adenocarcinoma CD8F1 (subcutaneous) in CD8F1. The note with it: higher = larger tumour. The method in brief: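 Transplantable tumors were established in mice, animals were dosed with compound or vehicle, and survival or tumor size was then measured in both groups. The treated result was divided by the control result.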

Where [1] appears, read: endpoint: median tumor weight change, dose: 125.0 mg/kg/injection, schedule: Q01DX001 (ip), vehicle: saline with Tween-80.
Where [2] appears, read: endpoint: median tumor weight change, dose: 250.0 mg/kg/injection, schedule: Q01DX001 (ip), vehicle: saline with Tween-80.
Setting [3] is: endpoint: median tumor weight change, dose: 500.0 mg/kg/injection, schedule: Q01DX001 (ip), vehicle: saline with Tween-80.

Regarding `CCOC(=O)CNC(=O)CCCCSc1ncnc2nc[nH]c12`, the T/C is, setting by setting: (endpoint: mean tumor weight, dose: 20.0 mg/kg/injection, schedule: Q07DX005 (ip), vehicle: saline) 121 % of control; (endpoint: mean tumor weight, dose: 40.0 mg/kg/injection, schedule: Q07DX005 (ip), vehicle: saline) 84 % of control; (endpoint: mean tumor weight, dose: 80.0 mg/kg/injection, schedule: Q07DX005 (ip), vehicle: saline) 48 % of control; (endpoint: mean tumor weight, dose: 160.0 mg/kg/injection, schedule: Q07DX005 (ip), vehicle: saline) 39 % of control; (endpoint: mean tumor weight, dose: 320.0 mg/kg/injection, schedule: Q07DX005 (ip), vehicle: saline) 67 % of control; (endpoint: mean tumor weight, dose: 640.0 mg/kg/injection, schedule: Q07DX005 (ip), vehicle: saline) 45 % of control. Besides, the T/C is, setting by setting: (endpoint: median tumor weight (est.), dose: 20.0 mg/kg/injection, schedule: Q07DX004 (ip), vehicle: saline) 78 % of control; (endpoint: median tumor weight (est.), dose: 40.0 mg/kg/injection, schedule: Q07DX004 (ip), vehicle: saline) 63 % of control; (endpoint: median tumor weight (est.), dose: 80.0 mg/kg/injection, schedule: Q07DX004 (ip), vehicle: saline) 40 % of control; (endpoint: median tumor weight (est.), dose: 160.0 mg/kg/injection, schedule: Q07DX004 (ip), vehicle: saline) 97 % of control; (endpoint: median tumor weight (est.), dose: 320.0 mg/kg/injection, schedule: Q07DX004 (ip), vehicle: saline) 109 % of control.
For `COC1/C=C/O[C@@]2(C)Oc3c(C)c(O)c4c(O)c(cc(O)c4c3C2=O)NC(=O)/C(C)=C\C=C\[C@H](C)C(O)[C@@H](C)[C@@H](O)[C@@H](C)[C@H](OC(C)=O)[C@@H]1C` (stereo partly drawn), the T/C (endpoint: median tumor weight change, dose: 31.25 mg/kg/injection, schedule: Q01DX001 (ip), vehicle: saline with Tween-80) is 87 % of control; the T/C (endpoint: median tumor weight change, dose: 62.5 mg/kg/injection, schedule: Q01DX001 (ip), vehicle: saline with Tween-80) is 82 % of control; the T/C under setting [1] is 98 % of control; the T/C under setting [2] is 153 % of control; the T/C under setting [3] was 83 % of control.
On to `CC(/C=N/N=C(N)N)=N\N=C(N)N`, for which the T/C is, setting by setting: (endpoint: median tumor weight (est.), dose: 6.25 mg/kg/injection, schedule: Q07DX005 (ip), vehicle: saline) 100 % of control; (endpoint: median tumor weight (est.), dose: 12.5 mg/kg/injection, schedule: Q07DX005 (ip), vehicle: saline) 85 % of control; (endpoint: median tumor weight (est.), dose: 25.0 mg/kg/injection, schedule: Q07DX005 (ip), vehicle: saline) 110 % of control; (endpoint: median tumor weight (est.), dose: 100.0 mg/kg/injection, schedule: Q07DX005 (ip), vehicle: saline) 67 % of control.
On to `OCCOCC(F)(F)F`, for which the T/C is, setting by setting: (endpoint: median tumor weight (est.), dose: 12.5 mg/kg/injection, schedule: Q07DX005 (ip), vehicle: saline with Tween-80) 57 % of control; (endpoint: median tumor weight (est.), dose: 25.0 mg/kg/injection, schedule: Q07DX005 (ip), vehicle: saline with Tween-80) 102 % of control and 106 % of control; (endpoint: median tumor weight (est.), dose: 50.0 mg/kg/injection, schedule: Q07DX005 (ip), vehicle: saline with Tween-80) 97 % of control and 104 % of control; (endpoint: median tumor weight (est.), dose: 200.0 mg/kg/injection, schedule: Q07DX005 (ip), vehicle: saline with Tween-80) 67 % of control; (endpoint: median tumor weight (est.), dose: 800.0 mg/kg/injection, schedule: Q07DX005 (ip), vehicle: saline with Tween-80) 70 % of control.
`CC(C)NCC(O)COc1cccc2ccccc12` (stereo not drawn): the T/C is 61 % of control (endpoint: mean tumor weight, dose: 4.0 mg/kg/injection, schedule: Q07DX007 (ip), vehicle: Klucel (hydroxypropylcellulose) (HPC)); 92 % of control (endpoint: mean tumor weight, dose: 8.0 mg/kg/injection, schedule: Q07DX007 (ip), vehicle: Klucel (hydroxypropylcellulose) (HPC)); 88 % of control (endpoint: mean tumor weight, dose: 32.0 mg/kg/injection, schedule: Q07DX007 (ip), vehicle: Klucel (hydroxypropylcellulose) (HPC)); 43 % of control (endpoint: mean tumor weight, dose: 64.0 mg/kg/injection, schedule: Q07DX007 (ip), vehicle: Klucel (hydroxypropylcellulose) (HPC)).
With `CNC=O`, the T/C by setting is: (endpoint: median tumor weight change, dose: 25.0 mg/kg/injection, schedule: Q01DX001 (ip), vehicle: saline) 54 % of control; (endpoint: median tumor weight change, dose: 50.0 mg/kg/injection, schedule: Q01DX001 (ip), vehicle: saline) 75 % of control; (endpoint: median tumor weight change, dose: 100.0 mg/kg/injection, schedule: Q01DX001 (ip), vehicle: saline) 59 % of control; (endpoint: median tumor weight change, dose: 200.0 mg/kg/injection, schedule: Q01DX001 (ip), vehicle: saline sonified) 48 % of control; (endpoint: median tumor weight change, dose: 200.0 mg/kg/injection, schedule: Q01DX001 (ip), vehicle: saline) 72 % of control; (endpoint: median tumor weight change, dose: 800.0 mg/kg/injection, schedule: Q01DX001 (ip), vehicle: saline) 154 % of control. Further, the T/C is 71 % of control (endpoint: median tumor weight change, dose: 1600.0 mg/kg/injection, schedule: Q01DX001 (ip), vehicle: saline) and 108 % of control (endpoint: median tumor weight change, dose: 3200.0 mg/kg/injection, schedule: Q01DX001 (ip), vehicle: saline).
`C1OCN2CSCC12` (stereo not drawn): the T/C was 90 % of control under setting [1], 71 % of control under setting [2] and 82 % of control under setting [3].
For `COc1cc2cc3c4cc(OC)c(OC)cc4cc[n+]3c(C)c2cc1OC` (tested in a mixture with another compound), the T/C (endpoint: median tumor weight (est.), dose: 100.0 mg/kg/injection, schedule: Q07DX005 (ip), vehicle: suspension in saline) was 97 % of control.
`C/C=C1\C[C@@H]2C(OC)Nc3cc(O)c(OC)cc3C(=O)N2C1` (stereo partly drawn): the T/C runs as follows: (endpoint: median tumor weight change, dose: 0.06 mg/kg/injection, schedule: Q01DX001 (ip), vehicle: saline) 105 % of control; (endpoint: median tumor weight change, dose: 0.12 mg/kg/injection, schedule: Q01DX001 (ip), vehicle: saline) 96 % of control; (endpoint: median tumor weight change, dose: 0.25 mg/kg/injection, schedule: Q01DX001 (ip), vehicle: saline) 105 % of control; (endpoint: median tumor weight change, dose: 0.31 mg/kg/injection, schedule: Q01DX001 (ip), vehicle: suspension in saline) 76 % of control; (endpoint: median tumor weight change, dose: 0.5 mg/kg/injection, schedule: Q01DX001 (ip), vehicle: saline) 90 % of control; (endpoint: median tumor weight change, dose: 0.62 mg/kg/injection, schedule: Q01DX001 (ip), vehicle: suspension in saline) 53 % of control. Also, the T/C (endpoint: median tumor weight change, dose: 1.0 mg/kg/injection, schedule: Q01DX001 (ip), vehicle: saline) is 92 % of control; the T/C (endpoint: median tumor weight change, dose: 1.25 mg/kg/injection, schedule: Q01DX001 (ip), vehicle: suspension in saline) is 43 % of control; the T/C (endpoint: median tumor weight change, dose: 2.0 mg/kg/injection, schedule: Q01DX001 (ip), vehicle: saline) is 42 % of control.
For `C[C@H](N)C(=O)N[C@@H]1[C@H]2C(=C(O)C[C@@H](O)[C@@H]2O)C(=O)O[C@@H]1C`, the T/C by setting is: (endpoint: median tumor weight change, dose: 125.0 mg/kg/injection, schedule: Q01DX001 (ip), vehicle: saline) 101 % of control; (endpoint: median tumor weight change, dose: 250.0 mg/kg/injection, schedule: Q01DX001 (ip), vehicle: saline) 120 % of control; (endpoint: median tumor weight change, dose: 1000.0 mg/kg/injection, schedule: Q01DX001 (ip), vehicle: saline) 57 % of control; (endpoint: median tumor weight change, dose: 2000.0 mg/kg/injection, schedule: Q01DX001 (ip), vehicle: saline) 86 % of control.
`[I][Hg][CH2]C1OCCOC1[CH2][Hg][I]` (stereo not drawn): the T/C (endpoint: median tumor weight (est.), dose: 12.5 mg/kg/injection, schedule: Q07DX005 (ip), vehicle: Klucel (hydroxypropylcellulose) (HPC)) is 96 % of control; the T/C (endpoint: median tumor weight (est.), dose: 25.0 mg/kg/injection, schedule: Q07DX005 (ip), vehicle: Klucel (hydroxypropylcellulose) (HPC)) was 100 % of control; the T/C (endpoint: median tumor weight (est.), dose: 50.0 mg/kg/injection, schedule: Q07DX005 (ip), vehicle: Klucel (hydroxypropylcellulose) (HPC)) was 85 % of control; the T/C (endpoint: median tumor weight (est.), dose: 100.0 mg/kg/injection, schedule: Q07DX005 (ip), vehicle: Klucel (hydroxypropylcellulose) (HPC)) is 76 % of control; the T/C (endpoint: median tumor weight (est.), dose: 200.0 mg/kg/injection, schedule: Q07DX005 (ip), vehicle: Klucel (hydroxypropylcellulose) (HPC)) is 52 % of control.
Take `CC[C@@H](C)[C@@H]1NC(=O)C(NC(=O)C(CC(C)C)N(C)C(=O)C2CCCN2C(=O)C(C)O)C(C)OC(=O)C(Cc2ccc(OC)cc2)N(C)C(=O)C2CCCN2C(=O)C(CC(C)C)NC(=O)C(C)C(=O)C(C(C)C)OC(=O)C[C@H]1O` (stereo partly drawn): the T/C was 73 % of control (endpoint: median tumor weight change, dose: 20.0 micrograms/kg/injection, schedule: Q01DX001 (ip), vehicle: distilled water + alcohol); 55 % of control (endpoint: median tumor weight change, dose: 40.0 micrograms/kg/injection, schedule: Q01DX001 (ip), vehicle: distilled water + alcohol); 63 % of control (endpoint: median tumor weight change, dose: 300.0 micrograms/kg/injection, schedule: Q01DX001 (ip), vehicle: distilled water + alcohol); 88 % of control (endpoint: median tumor weight change, dose: 320.0 micrograms/kg/injection, schedule: Q01DX001 (ip), vehicle: distilled water + alcohol); 71 % of control (endpoint: median tumor weight change, dose: 600.0 micrograms/kg/injection, schedule: Q01DX001 (ip), vehicle: distilled water + alcohol); 37 % of control (endpoint: median tumor weight change, dose: 1200.0 micrograms/kg/injection, schedule: Q01DX001 (ip), vehicle: distilled water + alcohol).
Regarding `Cc1ccc(N)c(N)c1`, the T/C reads like this: under setting [1], 65 % of control; under setting [2], 48 % of control; under setting [3], 75 % of control.
